Source: US4659721A, “Alkanol derivatives, and pharmaceutical preparation containing these compounds” (Ludwig Heumann & Co. GmbH, priority 1984, dated 1987)

Assays:
[1] = therapeutic use, several daily doses of tablets with dose units of 160 to 300 mg; cited from earlier work
histamine-H2 receptors = molecular target: T1, histamine-H2 receptors (Rattus norvegicus, UniProt P25102); test: Gosh-Schild rat (Stimulator: histamine); format: in vivo; conditions: iv, i.V., read-out: ID50 (the source's name)
T1 construct: from tissue; host or cells: rat stomach, perfused (in vivo Ghosh-Schild preparation)
T1 sequence (P25102 whole entry, the tested form may be a part): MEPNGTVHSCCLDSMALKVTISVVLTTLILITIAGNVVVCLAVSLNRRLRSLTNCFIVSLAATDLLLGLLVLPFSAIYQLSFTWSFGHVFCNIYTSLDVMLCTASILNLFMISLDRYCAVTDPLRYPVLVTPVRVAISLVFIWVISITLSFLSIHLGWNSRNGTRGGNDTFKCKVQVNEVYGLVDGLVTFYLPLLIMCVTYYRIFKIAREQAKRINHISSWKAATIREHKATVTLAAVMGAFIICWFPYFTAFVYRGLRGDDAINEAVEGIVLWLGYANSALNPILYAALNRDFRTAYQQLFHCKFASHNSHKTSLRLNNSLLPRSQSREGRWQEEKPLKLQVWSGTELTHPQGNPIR
From the text: These compounds also antagonize the histamine action on the frequency of contraction of the isolated right atrium of the guinea-pig but have no effect on histamine induced contractions of isolated, smooth gastrointestinal muscle when these are produced by […].
Experimental model: Gosh-Schild rat

SMILES | half life [1] | ED50 (histamine-H2 receptors)
CN/C(=N/CCSCc1nc[nH]c1C)NC#N [Cimetidine] | relatively short | 1.4 µmol/kg
CNC(=C[N+](=O)[O-])NCCSCc1ccc(CN(C)C)o1 [ranitidine] | relatively short | 
Nc1n[s+]([O-])nc1NCC(O)COCc1cccc(CN2CCCCC2)c1 (stereo not shown) [Example 1, 3-[2-Hydroxy-3-[3-(1-piperidylmethyl)-benzyloxy]propylamino]-4-amino-1,2,5-thiadiazole-1-oxide] |  | 0.075 µmol/kg
